Data reported in patent US10287295B2, “TGF-β inhibitors” (Rigel Pharmaceuticals, Inc., priority 2015, dated 2019).

Columns and labels:
[1] = system: GDF8 signaling (GDF pSMAD, MPC11); assay: AlphaScreen SureFire SMAD3 (p-Ser423/425) assay, inhibition of GDF8 signaling; assay type: cell-based; details: Mus musculus, MPC-11, inhibition of GDF8 signaling, p-SMAD3 readout
[2] = system: TGF-β signaling (TGF-β pSMAD, MPC-11); assay: AlphaScreen SureFire SMAD3 (p-Ser423/425) assay, inhibition of TGF-β signaling; assay type: cell-based; details: Mus musculus, MPC-11, inhibition of TGF-β signaling, p-SMAD3 readout

SMILES	IC50 [1]	IC50 [2]
Cc1cccc(-c2nc(C(C)C)[nH]c2-c2ccc3ncnn3c2)c1 [Compound 152, 6-(2-Isopropyl-4-(m-tolyl)-1H-imidazol-5-yl)-[1,2,4]triazolo[1,5-a]pyridine]	190 nM	380 nM
Clc1cccc(-c2nc[nH]c2-c2ccc3ncsc3c2)c1 [Compound 25, 6-(4-(3-Chlorophenyl)-1H-imidazol-5-yl)benzo[d]thiazole]	40 nM	60 nM
Cc1nc(-c2cc(F)c(F)c(F)c2)c(-c2ccc3nccnc3c2)[nH]1 [Compound 96, 6-(2-Methyl-4-(3,4,5-trifluorophenyl)-1H-imidazol-5-yl)quinoxaline]	440 nM	2430 nM
CCc1nc(-c2cccc(C)c2)c(-c2ccc3ncsc3c2)[nH]1 [Compound 116, 6-(2-Ethyl-4-(m-tolyl)-1H-imidazol-5-yl)benzo[d]thiazole]	280 nM	1520 nM
Fc1cccc(-c2nc[nH]c2-c2ccc3cn[nH]c3c2)c1 [Compound 28, 6-(4-(3-Fluorophenyl)-1H-imidazol-5-yl)-1H-indazole]	50 nM	60 nM
CCc1nc(-c2cc(F)cc(Cl)c2)c(-c2ccc3[nH]ncc3c2)[nH]1 [Compound 139, 5-(4-(3-Chloro-5-fluorophenyl)-2-ethyl-1H-imidazol-5-yl)-1H-indazole]	650 nM	2030 nM
Cc1cc(-c2nc(C)n(C)c2-c2ccc3ncsc3c2)ccc1F [Compound 55, 6-(4-(4-Fluoro-3-methylphenyl)-1,2-dimethyl-1H-imidazol-5-yl)benzo[d]thiazole]	840 nM	7760 nM
Nc1nc(-c2cccc(Cl)c2)c(-c2ccc3nccn3c2)s1 [Compound 164, 4-(3-chlorophenyl)-5-(imidazo[1,2-a]pyridin-6-yl)thiazol-2-amine]	66.3 nM	218 nM
Cc1cc(-c2ncsc2-c2ccc3ncsc3c2)ccc1F [Compound 165, 6-(4-(4-fluoro-3-methylphenyl)thiazol-5-yl)benzo[d]thiazole]	69.6 nM	262 nM
Cc1cc(-c2nc(N)sc2-c2ccc3nccn3c2)ccc1F [Compound 155, 4-(4-fluoro-3-methylphenyl)-5-(imidazo[1,2-a]pyridin-6-yl)thiazol-2-amine]	22.9 nM	72.4 nM
Fc1cccc(-c2nc[nH]c2-c2ccc3[nH]ncc3c2)c1 [Compound 27, 5-(4-(3-Fluorophenyl)-1H-imidazol-5-yl)-1H-indazole]	90 nM	120 nM
FC(F)(F)c1nc(-c2cccc(Cl)c2)c(-c2ccc3ncnn3c2)[nH]1 [Compound 150, 6-(4-(3-Chlorophenyl)-2-(trifluoromethyl)-1H-imidazol-5-yl)-[1,2,4]triazolo[1,5-a]pyridine]	350 nM	850 nM
CCc1nc(-c2cccc(F)c2)c(-c2ccc3ncnn3c2)[nH]1 [Compound 136, 6-(2-Ethyl-4-(3-fluorophenyl)-1H-imidazol-5-yl)-[1,2,4]triazolo[1,5-a]pyridine]	750 nM	2300 nM
Cc1nc(-c2ccc(F)c(C)c2)c(-c2ccc3nccnc3c2)[nH]1 [Compound 76, 6-(4-(4-Fluoro-3-methylphenyl)-2-methyl-1H-imidazol-5-yl)quinoxaline]	190 nM	1210 nM
CCc1nc(-c2cccc(Cl)c2)c(-c2ccc3nccnc3c2)[nH]1 [Compound 129, 6-(4-(3-Chlorophenyl)-2-ethyl-1H-imidazol-5-yl)quinoxaline]	290 nM	1340 nM
Cn1cnc(-c2cccc(Cl)c2)c1-c1ccc2ncsc2c1 [Compound 63, 6-(4-(3-Chlorophenyl)-1-methyl-1H-imidazol-5-yl)benzo[d]thiazole]	60 nM	230 nM
Cc1cc(-c2ncn(C)c2-c2ccc3ncn(C)c3c2)ccc1F [Compound 8, 6-(4-(4-Fluoro-3-methylphenyl)-1-methyl-1H-imidazol-5-yl)-1-methyl-1H-benzo[d]imidazole]	90 nM	210 nM
